We go through 2 compounds from patent publication US20110237600A1, “COMPOUNDS FOR IMPROVING LEARNING AND MEMORY” (AMNESTIX, INC., priority 2008, published 2011).

For test [1], the target named is T1, AURKC (Homo sapiens, UniProt Q9UQB9).
T1 construct: purchased Ambit
As to the kind of experiment: KinomeScan active-site dependent competition binding assay. Particulars: 10 μM concentration. The source says: (§1) Active-site dependent competition binding assays can be performed with hundreds of known kinases in parallel (Fabian et al., Nat Biotechnol. 2005, 23, 329; Karaman et al., Nat Biotechnol. 2008, 26, 127) in order to determine how compounds bind to both intended and unintended kinases. Such methods allow the assessment of the specificity of a kinase inhibitor.
(§2) Based on a competition binding assay that quantitatively measures the ability of a test compound to compete with an immobilized, active-site directed ligand it is possible to scan the competitive effect of the test compound for a broad variety of kinases in parallel (KinomeScan, Ambit, San Diego, Calif., USA; Fabian et al., Nat Biotechnol. 2005, 23, 329). Based on this analysis it is possible to assess the inhibitory specificity of a test compound. The assay was performed with 1-(8-cyclohexyl-5 isoquinoline-sulfonyl) 2-methyl-piperazine in 10 μM concentration. As result of the assay one obtains the percentage of competition of the active-site directed ligand for each of the over 400 kinases of the test due to the incubation with the test compounds. FIG. 3 lists the kinases ranked according to their binding to 1-(8-cyclohexyl-5 isoquinoline-sulfonyl) 2-methyl-piperazine (compound A). Strong binding (more than 50%) of 1-(8-cyclohexyl-5 isoquinoline-sulfonyl) 2-methyl-piperazine is found only for the kinases CSNK1E, CSNK1A1L, CSNK1D, MERTK, SLK, IRAK1, STK10, MAPK12, PHKG2, MAPK11, MET, AXL, STK32B, AURKC, CLK3, RPS6KA6, PDGFRB, KDR, CDK2.

Test [2] addresses T2, AXL (Homo sapiens, UniProt P30530).
T2 construct: purchased Ambit
Described as above. The following applies: 10 μM concentration.
Excerpt: as §1, §2

Test [3] has as its target T3, CDK2 (Homo sapiens, UniProt P24941).
T3 construct: purchased Ambit
Described as above. The following applies: 10 μM concentration.
Excerpt: as §1, §2

Test [4] has as its target T4, CLK3 (Homo sapiens, UniProt P49761).
T4 construct: purchased Ambit
The test is described as above. Particulars: 10 μM concentration.
Excerpt: as §1, §2

Test [5] deals with T5, CSNK1A1L (Homo sapiens, UniProt Q8N752).
T5 construct: purchased Ambit
The description is as above. Particulars: 10 μM concentration.
Excerpt: as §1, §2

The target in test [6] is T6, CSNK1D (Homo sapiens, UniProt P48730).
T6 construct: purchased Ambit
The test is described as above. Particulars: 10 μM concentration.
Excerpt: as §1, §2

Test [7] deals with T7, CSNK1E (Homo sapiens, UniProt P49674).
T7 construct: purchased Ambit
Described as above. Particulars: 10 μM concentration.
Excerpt: as §1, §2

Test [8] addresses T8, IRAK1 (Homo sapiens, UniProt P51617).
T8 construct: purchased Ambit
The test is described as above. The following applies: 10 μM concentration.
Excerpt: as §1, §2

The target in test [9] is T9, KDR (Homo sapiens, UniProt P35968).
T9 construct: purchased Ambit
Described as above. Particulars: 10 μM concentration.
Excerpt: as §1, §2

Test [10] addresses T10, MAPK11 (Homo sapiens, UniProt Q15759).
T10 construct: purchased Ambit
Described as above. Particulars: 10 μM concentration.
Excerpt: as §1, §2

For test [11], the target named is T11, MAPK12 (Homo sapiens, UniProt P53778).
T11 construct: purchased Ambit
T11 sequence (P53778 whole entry): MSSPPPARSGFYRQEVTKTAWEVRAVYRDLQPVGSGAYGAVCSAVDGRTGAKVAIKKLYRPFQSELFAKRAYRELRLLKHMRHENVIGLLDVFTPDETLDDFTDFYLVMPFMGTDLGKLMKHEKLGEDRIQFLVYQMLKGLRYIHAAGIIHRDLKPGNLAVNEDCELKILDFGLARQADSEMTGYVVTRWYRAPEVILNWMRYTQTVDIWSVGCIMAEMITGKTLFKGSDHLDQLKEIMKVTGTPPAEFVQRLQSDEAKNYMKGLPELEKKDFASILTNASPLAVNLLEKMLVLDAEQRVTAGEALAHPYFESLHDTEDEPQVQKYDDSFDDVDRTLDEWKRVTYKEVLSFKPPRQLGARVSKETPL
Described as above. Particulars: 10 μM concentration.
Excerpt: as §1, §2

Test [12] has as its target T12, MERTK (Homo sapiens, UniProt Q12866).
T12 construct: purchased Ambit
Described as above. Particulars: 10 μM concentration.
Excerpt: as §1, §2

Test [13] addresses T13, MET (Homo sapiens, UniProt P08581).
T13 construct: purchased Ambit
Described as above. Particulars: 10 μM concentration.
Excerpt: as §1, §2

For test [14], the target named is T14, PDGFRB (Homo sapiens, UniProt P09619).
T14 construct: purchased Ambit
T14 sequence (P09619 33-1106): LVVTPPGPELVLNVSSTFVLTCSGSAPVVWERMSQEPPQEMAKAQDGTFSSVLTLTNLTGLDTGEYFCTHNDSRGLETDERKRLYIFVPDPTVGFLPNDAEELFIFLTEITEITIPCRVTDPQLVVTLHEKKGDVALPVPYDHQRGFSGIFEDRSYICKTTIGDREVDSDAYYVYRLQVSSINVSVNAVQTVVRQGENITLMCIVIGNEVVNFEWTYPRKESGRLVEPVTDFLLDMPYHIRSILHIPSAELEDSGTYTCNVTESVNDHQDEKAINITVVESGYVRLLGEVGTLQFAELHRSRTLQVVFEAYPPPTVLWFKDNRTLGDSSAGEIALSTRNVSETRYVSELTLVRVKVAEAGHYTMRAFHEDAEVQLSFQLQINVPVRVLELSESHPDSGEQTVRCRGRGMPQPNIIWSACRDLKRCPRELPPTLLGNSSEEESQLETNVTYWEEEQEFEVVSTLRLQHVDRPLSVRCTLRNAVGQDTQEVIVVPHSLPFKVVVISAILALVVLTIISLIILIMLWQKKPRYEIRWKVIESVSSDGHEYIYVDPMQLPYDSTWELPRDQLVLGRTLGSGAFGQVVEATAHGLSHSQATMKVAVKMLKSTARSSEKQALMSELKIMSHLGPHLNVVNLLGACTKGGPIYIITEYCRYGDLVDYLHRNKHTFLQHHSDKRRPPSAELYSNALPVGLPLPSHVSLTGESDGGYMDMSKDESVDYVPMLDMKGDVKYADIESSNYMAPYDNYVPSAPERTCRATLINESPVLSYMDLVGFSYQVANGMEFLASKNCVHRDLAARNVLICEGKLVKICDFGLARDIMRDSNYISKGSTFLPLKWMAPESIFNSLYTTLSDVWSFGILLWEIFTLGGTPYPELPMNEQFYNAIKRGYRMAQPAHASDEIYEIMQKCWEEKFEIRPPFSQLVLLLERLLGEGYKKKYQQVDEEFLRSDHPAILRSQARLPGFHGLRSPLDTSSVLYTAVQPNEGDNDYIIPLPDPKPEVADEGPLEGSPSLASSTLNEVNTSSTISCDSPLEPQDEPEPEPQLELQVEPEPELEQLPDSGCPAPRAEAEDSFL
The description is as above. The following applies: 10 μM concentration.
Excerpt: as §1, §2

Test [15] addresses T15, PHKG2 (Homo sapiens, UniProt P15735).
T15 construct: purchased Ambit
The description is as above. The following applies: 10 μM concentration.
Excerpt: as §1, §2

The target of test [16] is T16, RPS6KA6 (Homo sapiens, UniProt Q9UK32).
T16 construct: purchased Ambit
Described as above. Particulars: 10 μM concentration.
Excerpt: as §1, §2

For test [17], the target named is T17, SLK (Homo sapiens, UniProt Q9H2G2).
T17 construct: purchased Ambit
Described as above. Particulars: 10 μM concentration.
Excerpt: as §1, §2

Test [18] has as its target T18, STK10 (Homo sapiens, UniProt O94804).
T18 construct: purchased Ambit
The test is described as above. The following applies: 10 μM concentration.
Excerpt: as §1, §2

For test [19], the target named is T19, STK32B (Homo sapiens, UniProt Q9NY57).
T19 construct: purchased Ambit
T19 sequence (Q9NY57 whole entry): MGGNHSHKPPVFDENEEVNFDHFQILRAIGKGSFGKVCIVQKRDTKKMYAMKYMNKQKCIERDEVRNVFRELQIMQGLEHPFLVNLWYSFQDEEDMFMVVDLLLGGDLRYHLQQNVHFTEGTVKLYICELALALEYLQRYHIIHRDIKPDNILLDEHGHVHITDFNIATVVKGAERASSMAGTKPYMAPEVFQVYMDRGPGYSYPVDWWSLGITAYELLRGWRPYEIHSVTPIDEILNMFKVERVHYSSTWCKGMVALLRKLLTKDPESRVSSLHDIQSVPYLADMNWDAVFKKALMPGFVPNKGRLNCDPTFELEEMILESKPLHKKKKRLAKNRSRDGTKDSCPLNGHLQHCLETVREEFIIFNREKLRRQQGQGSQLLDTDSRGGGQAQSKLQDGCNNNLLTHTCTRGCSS
The test is described as above. The following applies: 10 μM concentration.
Excerpt: as §1, §2

In test [20] the test system is over 400 kinases. Kind of test: Kinase specificity analysis (KinomeScan panel). Particulars: 10 μM concentration; strong binding (more than 50%) for 19 kinases only.
Excerpt: as §1
as §2, with “Strong binding (more than 50%) of 1-(8-cyclohexyl-5 isoquinoline-sulfonyl) 2-methyl-piperazine is found only for the kinases CSNK1E, CSNK1A1L, CSNK1D, MERTK, SLK, IRAK1, STK10, MAPK12, PHKG2, MAPK11, MET, AXL, STK32B, AURKC, CLK3, RPS6KA6, PDGFRB, KDR, CDK2.” left out

The subject of test [21] is hippocampal slices from 3-4 week-old Wistar rats. Kind of test: In vitro LTP analysis, theta burst stimulation, fEPSP slope recording. The test is classed as cell-based, rat. An excerpt:
The effect of long-term potentiation (LTP) which can be measured in vitro, is generally thought to correlate with memory. Stimulation of an afferent neuron or neuronal cell area results in membrane potentials of a downstream positioned neuron or neuronal cell area. Such membrane potentials are long-term potentiated at least over hours after stimulating the afferent neurons e.g. with a theta burst paradigm. Therefore, LTP is regarded as memory on cellular level. Electrophysiological LTP measurements on neurons incubated with a test compound in comparison to sham incubated neurons can be used to assess the compounds' potential to enhance memory (See generally Cooke and Bliss, Brain, 2006, 129 (1659), which is hereby incorporated by reference).
LTP is thought to be suitable as in vitro model for the assessment of memory function. Therefore, it allows analysis of test compounds, e.g. the compounds of the invention, e.g. 1-(8-cyclohexyl-5 isoquinoline-sulfonyl) 2-methyl-piperazine for memory enhancing potential. Experiments were done on hippocampal slices from 3-4 week-old Wistar rats. The rats were sacrificed by decapitation without prior anesthesia. […] A platinum/tungsten electrode was then lowered into the CA1 dendritic layer under visual control until stable amplitudes of the recorded fEPSP were achieved. […] Then, the test compound was washed in for a period of 30 min during which stimulation was continued at 0.05 Hz and fEPSPs were continuously recorded. […] All slices recorded simultaneously were treated with the same time schedule. From the recorded data, the amplitudes of the evoked fEPSP were automatically calculated by the recording software (Synchroslice data acquisition and analysis, LRE) as the negative peak of the postsynaptic signal with respect to baseline and plotted online. All recorded signals were digitally stored for later offline analysis, in particular for fEPSP negative slope calculation. From the stored single sweeps, the slope was calculated between 30% and 70% of the maximum fEPSP amplitude. […]

The subject of test [22] is undifferentiated PC12 cells. Particulars: Zhang et al., Cell Mol Biol Lett., 2006; cited from earlier work.

T13 sequence (P08581 25-1390): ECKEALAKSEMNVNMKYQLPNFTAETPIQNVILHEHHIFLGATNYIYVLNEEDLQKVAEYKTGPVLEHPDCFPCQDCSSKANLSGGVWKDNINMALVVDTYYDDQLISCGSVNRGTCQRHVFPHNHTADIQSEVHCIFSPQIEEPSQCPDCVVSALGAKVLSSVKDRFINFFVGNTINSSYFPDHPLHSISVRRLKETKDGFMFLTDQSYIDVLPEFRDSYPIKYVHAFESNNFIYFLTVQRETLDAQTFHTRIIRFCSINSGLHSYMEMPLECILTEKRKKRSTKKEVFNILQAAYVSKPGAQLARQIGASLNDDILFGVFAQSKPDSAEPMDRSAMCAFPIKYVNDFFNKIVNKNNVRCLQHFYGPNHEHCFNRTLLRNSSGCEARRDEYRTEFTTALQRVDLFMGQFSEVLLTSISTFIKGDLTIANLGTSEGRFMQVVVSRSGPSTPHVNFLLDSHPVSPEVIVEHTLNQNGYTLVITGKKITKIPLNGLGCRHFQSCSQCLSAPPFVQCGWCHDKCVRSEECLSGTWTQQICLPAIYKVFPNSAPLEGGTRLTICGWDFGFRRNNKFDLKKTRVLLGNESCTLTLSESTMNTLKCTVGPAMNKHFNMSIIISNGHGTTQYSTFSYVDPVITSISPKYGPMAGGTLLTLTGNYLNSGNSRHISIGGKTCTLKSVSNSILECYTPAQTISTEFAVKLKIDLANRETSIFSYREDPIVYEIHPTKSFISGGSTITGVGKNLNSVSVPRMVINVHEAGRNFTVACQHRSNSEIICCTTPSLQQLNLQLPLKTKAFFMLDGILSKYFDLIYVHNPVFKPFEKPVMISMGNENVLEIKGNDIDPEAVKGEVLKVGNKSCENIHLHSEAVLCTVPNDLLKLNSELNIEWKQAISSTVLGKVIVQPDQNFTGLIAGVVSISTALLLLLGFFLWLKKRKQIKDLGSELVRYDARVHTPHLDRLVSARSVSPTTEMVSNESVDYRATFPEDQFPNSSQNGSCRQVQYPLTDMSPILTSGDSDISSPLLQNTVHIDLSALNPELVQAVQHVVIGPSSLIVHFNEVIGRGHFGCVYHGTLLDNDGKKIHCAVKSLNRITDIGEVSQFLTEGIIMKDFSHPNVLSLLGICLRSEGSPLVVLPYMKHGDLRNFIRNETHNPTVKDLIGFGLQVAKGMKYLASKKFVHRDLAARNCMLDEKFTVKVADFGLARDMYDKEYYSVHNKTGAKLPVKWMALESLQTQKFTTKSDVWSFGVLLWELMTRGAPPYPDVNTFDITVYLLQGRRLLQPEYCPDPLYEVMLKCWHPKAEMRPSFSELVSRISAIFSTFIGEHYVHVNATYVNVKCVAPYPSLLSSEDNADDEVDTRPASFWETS
T12 sequence (Q12866 21-999): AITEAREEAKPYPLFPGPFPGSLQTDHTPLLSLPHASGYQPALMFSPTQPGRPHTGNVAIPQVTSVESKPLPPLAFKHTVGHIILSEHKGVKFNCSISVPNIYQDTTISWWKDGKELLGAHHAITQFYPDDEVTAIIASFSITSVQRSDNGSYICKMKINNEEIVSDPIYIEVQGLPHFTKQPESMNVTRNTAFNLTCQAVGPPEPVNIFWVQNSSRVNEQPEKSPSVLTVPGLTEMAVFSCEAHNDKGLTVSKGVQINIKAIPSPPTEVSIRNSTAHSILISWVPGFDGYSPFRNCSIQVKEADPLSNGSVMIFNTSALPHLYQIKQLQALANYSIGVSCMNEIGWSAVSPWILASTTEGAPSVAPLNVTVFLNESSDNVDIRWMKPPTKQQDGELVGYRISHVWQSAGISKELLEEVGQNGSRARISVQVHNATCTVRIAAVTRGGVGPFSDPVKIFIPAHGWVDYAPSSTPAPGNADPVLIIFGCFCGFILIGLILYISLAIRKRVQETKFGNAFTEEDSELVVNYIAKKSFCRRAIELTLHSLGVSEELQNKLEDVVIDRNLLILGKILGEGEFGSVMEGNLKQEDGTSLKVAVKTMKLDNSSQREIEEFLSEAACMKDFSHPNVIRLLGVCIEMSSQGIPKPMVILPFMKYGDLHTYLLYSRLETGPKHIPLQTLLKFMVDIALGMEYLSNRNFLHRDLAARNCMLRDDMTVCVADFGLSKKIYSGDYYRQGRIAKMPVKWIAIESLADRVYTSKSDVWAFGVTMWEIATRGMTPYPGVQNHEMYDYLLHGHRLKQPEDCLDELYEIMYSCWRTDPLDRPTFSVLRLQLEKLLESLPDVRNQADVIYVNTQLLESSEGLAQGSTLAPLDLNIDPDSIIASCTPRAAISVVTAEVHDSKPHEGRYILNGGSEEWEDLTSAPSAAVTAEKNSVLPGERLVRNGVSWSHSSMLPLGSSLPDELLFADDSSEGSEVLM
T10 sequence (Q15759 whole entry): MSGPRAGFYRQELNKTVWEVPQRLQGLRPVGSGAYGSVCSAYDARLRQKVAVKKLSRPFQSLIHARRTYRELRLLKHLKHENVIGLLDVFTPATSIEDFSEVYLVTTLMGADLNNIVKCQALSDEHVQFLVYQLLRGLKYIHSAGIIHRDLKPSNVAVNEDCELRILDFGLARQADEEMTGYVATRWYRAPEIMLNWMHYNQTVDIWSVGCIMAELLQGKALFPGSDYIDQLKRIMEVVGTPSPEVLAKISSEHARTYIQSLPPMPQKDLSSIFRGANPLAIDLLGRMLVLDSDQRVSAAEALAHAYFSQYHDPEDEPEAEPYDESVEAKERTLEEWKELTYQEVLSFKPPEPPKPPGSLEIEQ
T15 sequence (P15735 whole entry): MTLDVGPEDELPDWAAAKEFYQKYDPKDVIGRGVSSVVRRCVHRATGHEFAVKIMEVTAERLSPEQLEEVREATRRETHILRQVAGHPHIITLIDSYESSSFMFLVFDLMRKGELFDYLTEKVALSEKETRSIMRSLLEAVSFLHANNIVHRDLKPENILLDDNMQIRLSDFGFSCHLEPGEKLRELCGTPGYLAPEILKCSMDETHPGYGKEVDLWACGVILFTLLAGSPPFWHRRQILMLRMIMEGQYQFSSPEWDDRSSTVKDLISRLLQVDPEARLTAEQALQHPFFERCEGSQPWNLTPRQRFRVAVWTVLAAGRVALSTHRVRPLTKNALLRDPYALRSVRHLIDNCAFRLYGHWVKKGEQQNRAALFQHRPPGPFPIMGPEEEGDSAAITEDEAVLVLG

As for `CC1CNCCN1S(=O)(=O)c1ccc(C2CCCCC2)c2cnccc12` (stereo not drawn) [1-(8-cyclohexyl-5 isoquinoline-sulfonyl) 2-methyl-piperazine], the “binding (percentage of competition of the active-site directed ligand)” value in test [1], in test [2], in [3], in test [4], in test [5] and in test [6] was “more than 50%” each time. Besides, the “binding (percentage of competition of the active-site directed ligand)” value in test [7], in [8], in [9], in test [10], in test [11] and in [12] was “more than 50%” throughout. In addition, the “binding (percentage of competition of the active-site directed ligand)” value in test [13], in test [14], in test [15], in test [16], in [17] and in test [18] was “more than 50%” each time. Also, in test [19], the “binding (percentage of competition of the active-site directed ligand)” value is “more than 50%”. Moreover, the “inhibitory specificity across the kinase panel” value in test [20] is on record as “very selective kinase inhibitor”. Further, in [21] (100 μM concentration), the “increase in EPSP slopes when the compound is removed” value is “most obvious and very strong”. The “LTP induction (fEPSP slope)” value in test [21] (compound washed in at increasing concentrations (1 μM, 10 μM and 100 μM), control slices about 140% of pre-stimulus levels) is given as “complete block of LTP-induction”. Also, in test [21] (wash-out 30 min after LTP induction, 1 μM, 10 μM and 100 μM), the “EPSP slopes when the compound is removed” value is given as “increase in EPSP slopes”.

`O=S(=O)(c1cccc2cnccc12)N1CCCNCC1` [Fasudil]: the neurite outgrowth entry in test [22] is “increase neurite outgrowth”.
